Measured values reported in US7935680B2, “Methods for modulating the axonal growth of central nervous system neurons” (Children's Medical Center Corporation, priority 1997, dated 2011).
Entries after “also recorded” stand apart in the source; their conditions may differ.

Key:
Assay type in all cases: cell-based
[1] = tested on: goldfish retinal ganglion cells; assay: Axonal outgrowth from dissociated goldfish retinal ganglion cell cultures; settings: for effect of reducing agents on outgrowth stimulated by AF-1: a-tocopherol 30 μM, MEG 100 μM; for decline of AF-1 activity: n.s.
Protocol: Axogenesis factor-1 was obtained essentially as described in Schwalb et al., 1995, and Schwalb et al., Neuroscience, 72: 901-910, 1996, the contents of which are incorporated herein by reference). Optic nerves were dissected, cut into fragments 1 mm in length, and incubated in a ratio of 6 nerves in 3 ml of either L-15 media (Gibco BRL) or phosphate-buffered saline (Gibco BRL). After 3-4 hours, nerve fragments were removed by filtering through a 0.22 μm pore low protein-binding filter (Gelman). A low molecular weight fraction of the conditioned media was prepared by ultrafiltration, first with a molecular weight cut-off of 3 kDa (Amicon Centriprep-3), then with a cut-off of 1 kDa (Filtron). The filtrate was used as a positive control at 20-30% final concentration. […] Goldfish (Comet Variety, Mt. Parnell Fisheries, Mt. Parnell Pa.), 6-10 cm in length, were dark-adapted and their retinas dissected. Retinas were incubated with papain (20 μg/ml), activated with cysteine (2.8 mM) for 30 minutes at room temperature, then dissociated by gentle trituration. […] Neuroscience 15: 5514-5625, 1995, the contents of which are incorporated herein by reference). […] Cells were maintained at 21° C. in serum free, defined media containing insulin, selenium, transferrin, bovine serum albumin, catalase, superoxide dismutase, hormones, and vitamins in Eagle's L-15 media as described in Schwalb et al., 1995, the contents of which are incorporated herein by reference). Dissociated cultures of purified rat retinal ganglion cells were prepared by immunopanning as described in Barres et al., Neuron, 1: 791-803, 1988, the contents of which are incorporated herein by reference). In brief, retinas from postnatal day 8 Sparague-Dawley rats were dissociated using papain activated with cysteine. Macrophages were removed by incubation with an anti-rat macrophage antibody (Accurate) followed by immunopanning with an anti-rabbit 1gG antibody. Ganglion cells were isolated by immunopanning with an anti-Thy-1 antibody, then dislodged with trypsin for use in low-density cultures. Rat retinal ganglion cells were maintained at 37° C. in a CO2 incubator using the same medium described above except for the presence of 30 mM bicarbonate. In a typical experiment, samples were plated in quadruplicate in randomized positions of a 24-well plate and the code was concealed to ensure that growth was evaluated in a blinded fashion. Each experiment contained 4 wells of a negative control (media plus supplements only) and 4 wells of a positive control (a standardized AF-1 sample of known activity). […] After the completion of counting, the code was broken, the data tabulated, and means and standard errors were calculated for the 4 replicate wells of each sample using Cricket Graph (CA Associates, […].). […] Group comparisons were based upon pairwise, 2-tailed Student's t-tests. Several independent experiments were performed for most samples, as noted in the figure legends. […] Cell survival is reported as the number of viable RGCs per high-powered field.

[2] = tested on: goldfish retinal ganglion cells; assay: Cell survival in goldfish retinal ganglion cell cultures (viable RGCs per field)
Protocol: Goldfish (Comet Variety, Mt. Parnell Fisheries, Mt. Parnell Pa.), 6-10 cm in length, were dark-adapted and their retinas dissected. Retinas were incubated with papain (20 μg/ml), activated with cysteine (2.8 mM) for 30 minutes at room temperature, then dissociated by gentle trituration. […] Low density cultures were achieved by plating c. 5×10^3 cells/well into poly L-lysine coated, 24-well culture dishes (Costar, Cambridge, Mass.). […] In brief, retinas from postnatal day 8 Sparague-Dawley rats were dissociated using papain activated with cysteine. Macrophages were removed by incubation with an anti-rat macrophage antibody (Accurate) followed by immunopanning with an anti-rabbit 1gG antibody. Ganglion cells were isolated by immunopanning with an anti-Thy-1 antibody, then dislodged with trypsin for use in low-density cultures. Rat retinal ganglion cells were maintained at 37° C. in a CO2 incubator using the same medium described above except for the presence of 30 mM bicarbonate.
In a typical experiment, samples were plated in quadruplicate in randomized positions of a 24-well plate and the code was concealed to ensure that growth was evaluated in a blinded fashion. Each experiment contained 4 wells of a negative control (media plus supplements only) and 4 wells of a positive control (a standardized AF-1 sample of known activity). Growth and survival were assessed after 6 days for all ganglion cells in 25 consecutive fields of each well using phase contrast microscopy at 400× magnification (c. 150 ganglion cells counted per well). […] After the completion of counting, the code was broken, the data tabulated, and means and standard errors were calculated for the 4 replicate wells of each sample using Cricket Graph (CA Associates, Islandia, N.Y.). Data were normalized by subtracting the growth in the negative controls (usually 4-5%) and dividing by the net growth in the positive controls. […] Group comparisons were based upon pairwise, 2-tailed Student's t-tests. Several independent experiments were performed for most samples, as noted in the figure legends. In some cases, cell viability was assessed with the dye 5,6-carboxyfluorescein diacetate. Cell survival is reported as the number of viable RGCs per high-powered field.

[3] = tested on: rat retinal ganglion cells; assay: Axonal outgrowth from purified rat retinal ganglion cells; settings: 6-TG 10 μM, rat RGCs
Protocol: Goldfish (Comet Variety, Mt. Parnell Fisheries, Mt. Parnell Pa.), 6-10 cm in length, were dark-adapted and their retinas dissected. Retinas were incubated with papain (20 μg/ml), activated with cysteine (2.8 mM) for 30 minutes at room temperature, then dissociated by gentle trituration. Repeated cycles of trituration and sedimentation yielded cultures nearly homogeneous in ganglion cells, which are readily identified by their oval shape, phase-bright appearance, size (diameter 15 μm), and extension of only 1 or 2 neurites of uniform caliber; these criteria have been verified by retrograde labeling (see Schwartz & Agranoff, Brain Res. 206: 331-343, 1981 and Schwalb et al., J. Neuroscience 15: 5514-5625, 1995, the contents of which are incorporated herein by reference). Low density cultures were achieved by plating c. 5×10^3 cells/well into poly L-lysine coated, 24-well culture dishes (Costar, Cambridge, Mass.). Cells were maintained at 21° C. in serum free, defined media containing insulin, selenium, transferrin, bovine serum albumin, catalase, superoxide dismutase, hormones, and vitamins in Eagle's L-15 media as described in Schwalb et al., 1995, the contents of which are incorporated herein by reference). Dissociated cultures of purified rat retinal ganglion cells were prepared by immunopanning as described in Barres et al., Neuron, 1: 791-803, 1988, the contents of which are incorporated herein by reference). In brief, retinas from postnatal day 8 Sparague-Dawley rats were dissociated using papain activated with cysteine. Macrophages were removed by incubation with an anti-rat macrophage antibody (Accurate) followed by immunopanning with an anti-rabbit 1gG antibody. Ganglion cells were isolated by immunopanning with an anti-Thy-1 antibody, then dislodged with trypsin for use in low-density cultures. Rat retinal ganglion cells were maintained at 37° C. in a CO2 incubator using the same medium described above except for the presence of 30 mM bicarbonate.
In a typical experiment, samples were plated in quadruplicate in randomized positions of a 24-well plate and the code was concealed to ensure that growth was evaluated in a blinded fashion. Each experiment contained 4 wells of a negative control (media plus supplements only) and 4 wells of a positive control (a standardized AF-1 sample of known activity). Growth and survival were assessed after 6 days for all ganglion cells in 25 consecutive fields of each well using phase contrast microscopy at 400× magnification (c. 150 ganglion cells counted per well). Extension of a process 5 cell diameters in length was the criterion for growth, since it clearly distinguishes stimulated cells from negative controls (see Schwalb et al., 1995). After the completion of counting, the code was broken, the data tabulated, and means and standard errors were calculated for the 4 replicate wells of each sample using Cricket Graph (CA Associates, Islandia, N.Y.). Data were normalized by subtracting the growth in the negative controls (usually 4-5%) and dividing by the net growth in the positive controls. In the most favorable experiments, more than 50% of retinal ganglion cells (RGCs) exposed to AF-1 extended axons 5 cell diameters in length after 6 days. Group comparisons were based upon pairwise, 2-tailed Student's t-tests. Several independent experiments were performed for most samples, as noted in the figure legends. In some cases, cell viability was assessed with the dye 5,6-carboxyfluorescein diacetate. […]

[4] = DCF alone, with AF-1, or with guanosine

**Q.** How did the axonal outgrowth activity ([1]; at 10 μM) turn out when `Nc1ncnc2c1ncn2[C@@H]1O[C@H](COP(=O)(O)OP(=O)(O)OP(=O)(O)O)[C@@H](O)[C@H]1O` [ATP, adenosine triphosphate] was run?
**A.** marginally significant level of activity

**Q.** What about the axonal outgrowth activity ([1]; at 100 μM) of the same compound?
**A.** not at 100 μM

**Q.** Which “effects of DCF on outgrowth” value [1, 4] does the source give for `OC[C@H]1O[C@@H](n2cnc3c2NC=NC[C@H]3O)C[C@@H]1O` [DCF, deoxycoformycin] here?
**A.** did not occur

**Q.** And the “effects of DCF on survival” value [2, 4]?
**A.** did not occur

**Q.** How did the axonal outgrowth activity ([1]; concentrations up to 1 mM) turn out when “8-bromoadenosine-3′,5′ cyclic monophosphorothioate [Sp-8-Br-cAMPS]” was run?
**A.** inactive

**Q.** glutathione a-methyl ester [MEG] was tested. Which “effect of reducing agents on outgrowth stimulated by AF-1” value [1] did it give?
**A.** no effect; also recorded: not mimicked

**Q.** With `Cc1c(C)c2c(c(C)c1O)CC[C@@](C)(CCC[C@H](C)CCC[C@H](C)CCCC(C)C)O2` [a-tocopherol] as the compound, how does the “effect of reducing agents on outgrowth stimulated by AF-1” value [1] read?
**A.** no effect; also recorded: not mimicked

**Q.** Which axonal outgrowth activity ([1]; dose-response, FIG. 4) does the source give for `O=c1[nH]cnc2nc[nH]c12` [hypoxanthine] here?
**A.** no activity at all

**Q.** What about the axonal outgrowth activity ([1]; dose-response, FIG. 4, listed as Hypoxanthine) of the same compound?
**A.** inactive

**Q.** Which results are given for `Nc1nc2nc[nH]c2c(=S)[nH]1` [6-TG, 6-thioguanine]?
**A.** effect on growth stimulated by 100 μM inosine or 100 μM guanosine ([1]; 6-TG 10 μM): no effect; also recorded: unaffected; effect on growth stimulated by AF-1 ([1]; 6-TG 10 μM): blocked all growth stimulated by AF-1; also recorded: suppressed growth induced by AF-1 below baseline; also recorded: completely blocked; effect on CNTF-induced outgrowth [3]: blocked CNTF-induced outgrowth; also recorded: inhibited

**Q.** With `Nc1nc2c(nc(Br)n2[C@@H]2O[C@@H]3COP(=O)(O)O[C@H]3[C@H]2O)c(=O)[nH]1` [8-Br cGMP, 8-bromo cyclic GMP] as the compound, how does the axonal outgrowth activity ([1]; tested at concentrations between 1-100 μM) read?
**A.** Neither dibutyryl cAMP (dBcAMP) nor 8-Br cGMP showed any activity

**Q.** What does the source list for `Cn1c(=O)c2[nH]c(-c3ccc(S(=O)(=O)O)cc3)nc2n(C)c1=O` [8-PST, 8-p-(sulfophenyltheophylline)]?
**A.** effect on outgrowth stimulated by adenosine, guanosine, or AF-1 ([1]; 8-PST at 20 μM): no effect; effect on outgrowth stimulated by AF-1, 100 μM adenosine or 100 μM guanosine ([1]; addition of 20 pM 8-PST): unaffected

**Q.** Which axonal outgrowth activity ([1]; at 100 μM) does the source give for `Nc1ncnc2c1ncn2[C@@H]1O[C@H](COP(=O)(O)O)[C@@H](O)[C@H]1O` [AMP, adenosine 5′ monophosphate] here?
**A.** marginally significant level of activity

**Q.** How did the axonal outgrowth activity ([1]; at 100 μM) turn out when `Nc1ncnc2c1ncn2[C@@H]1O[C@H](COP(=O)(O)OP(=O)(O)O)[C@@H](O)[C@H]1O` [ADP, adenosine diphosphate] was run?
**A.** marginally significant level of activity

**Q.** Which results are given for `CCCCCC[C@@H]([C@@H](C)O)n1cnc2c(N)ncnc21` (racemic) [EHNA, erythro-9-(2-hydroxy-3-nonyl) adenine]?
**A.** effect on adenosine-stimulated outgrowth ([1]; 10 μM EHNA, 100 μM adenosine): rendered adenosine (100 μM) ineffective in stimulating outgrowth; reduction of growth stimulated by guanosine or AF-1 ([1]; EHNA 10 μM): about 50%; cell survival [2]: not altering cell survival

**Q.** Which “growth relative to baseline” value ([1]; 100 μM, FIG. 2) does the source give for `Nc1nc(Cl)nc2c1ncn2[C@@H]1O[C@H](CO)[C@@H](O)[C@H]1O` [2-CA, 2-chloroadenosine] here?
**A.** diminishes growth below baseline levels

**Q.** And the “growth relative to baseline” value ([1]; 10 and 100 μM, 3 out of 3 experiments)?
**A.** small but significant decrease in growth below the baseline

**Q.** With `O=[N+]([O-])c1ccc(CSc2ncnc3c2ncn3C2OC(CO)C(O)C2O)cc1` (centres unmarked) [NBTI, nitrobenzylthio inosine] as the compound, how does the “effect on the activity of AF-1” value ([1]; NBTI 20 μM) read?
**A.** no effect

**Q.** And the “loss of activity of inosine” value ([1]; NBTI 20 μM, 50 μM inosine)?
**A.** 86%

**Q.** And the “loss of activity of guanosine” value ([1]; NBTI 20 μM, 100 μM guanosine)?
**A.** 93%

**Q.** And the “decline of AF-1 activity” value ([1]; NBTI 20 μM, dipyridamole 10 μM)?
**A.** 10%

**Q.** Which axonal outgrowth activity ([1]; concentrations up to 1 mM) does the source give for `Nc1nc2c(nc(Sc3ccc(Cl)cc3)n2[C@@H]2O[C@@H]3COP(=O)(O)O[C@H]3[C@H]2O)c(=O)[nH]1` [8-pcpt-cGMP, 8-(4-chlorophenylthio) guanosine-3′,5′-cyclic monophosphate] here?
**A.** inactive

**Q.** For `OCCN(CCO)c1nc(N2CCCCC2)c2nc(N(CCO)CCO)nc(N3CCCCC3)c2n1` [dipyridamole], which “effect of transport inhibitors on 6-TG blockade of AF-1-stimulated outgrowth” value ([1]; 6-TG 10 μM, NBTI 20 μM, dipyridamole 10 μM) is on record?
**A.** failed to prevent 6-TG from blocking outgrowth; also recorded: not restored

**Q.** What about the “decline of AF-1 activity” value ([1]; NBTI 20 μM, dipyridamole 10 μM) of the same compound?
**A.** 25%
